Among the data in ChEMBL document CHEMBL3044779, “The action of herbicides on fatty acid biosynthesis and elongation in barley and cucumber” (Pest Manag Sci, 2010) are inhibition and Activity values, retold here.

The subject of test [1] is Hordeum vulgare. Put plainly: Inhibition of fatty acid synthesis in Hordeum vulgare (barley) using [14C]acetate assessed as reduction in [14C]-labeled 24C fatty acid level at 300 uM after 3 hr by liquid scintillation counting. The test is classed as functional, organism-based.
The subject of test [2] is Hordeum vulgare. Nature of the test: Inhibition of fatty acid synthesis in Hordeum vulgare (barley) using [14C]acetate assessed as reduction in [14C]-labeled 22C fatty acid level at 300 uM after 3 hr by liquid scintillation counting. The test is classed as functional, organism-based.
The subject of test [3] is Cucumis sativus. Put plainly: Inhibition of fatty acid synthesis in Cucumis sativus (cucumber) using [14C]acetate assessed as reduction in [14C]-labeled 20C fatty acid level at 300 uM after 3 hr by liquid scintillation counting relative to control. The format is functional, organism-based.
Test [4] concerns Hordeum vulgare. Put plainly: Inhibition of fatty acid synthesis in Hordeum vulgare (barley) using [14C]acetate assessed as reduction in [14C]-labeled 20C fatty acid level at 300 uM after 3 hr by liquid scintillation counting. The format is functional, organism-based.
The subject of test [5] is Cucumis sativus. Nature of the test: Inhibition of fatty acid synthesis in Cucumis sativus (cucumber) using [14C]acetate assessed as [14C]-labeled 18C fatty acid level at 300 uM after 3 hr by liquid scintillation counting (reference value: 33.5 +/- 1.5%). The format is functional. On the set-up: scale not given: the % may be the effect or the level left.
Test [6] relates to Hordeum vulgare. Put plainly: Inhibition of fatty acid synthesis in Hordeum vulgare (barley) using [14C]acetate assessed as [14C]-labeled 18C fatty acid level at 300 uM after 3 hr by liquid scintillation counting (reference value: 57 +/- 0.9%). Also noted: scale not given: the % may be the effect or the level left. The test is classed as functional.
The subject of test [7] is Cucumis sativus. Put plainly: Inhibition of fatty acid synthesis in Cucumis sativus (cucumber) using [14C]acetate assessed as [14C]-labeled 16C fatty acid level at 300 uM after 3 hr by liquid scintillation counting (reference value: 27.6 +/- 5.1%). The format is functional. On the set-up: scale not given: the % may be the effect or the level left.
Test [8] relates to Hordeum vulgare. Nature of the test: Inhibition of fatty acid synthesis in Hordeum vulgare (barley) using [14C]acetate assessed as [14C]-labeled 16C fatty acid level at 300 uM after 3 hr by liquid scintillation counting (reference value: 30.6 +/- 0.2%). The test is classed as functional. Also noted: scale not given: the % may be the effect or the level left.
Test [9] relates to Cucumis sativus. Put plainly: Inhibition of fatty acid synthesis in Cucumis sativus (cucumber) assessed as inhibition of [14C]acetate incoporation in total fatty acids at 300 uM measured as total disintegration per g of fresh weight after 3 hr by liquid scintillation counting (reference value: 4.4 +/- 1 dpm x 10^6 g'1 fresh wt). The format is functional.
The test system of test [10] is Hordeum vulgare. Nature of the test: Inhibition of fatty acid synthesis in Hordeum vulgare (barley) assessed as inhibition of [14C]acetate incoporation in total fatty acids at 300 uM measured as total disintegration per g of fresh weight after 3 hr by liquid scintillation counting (reference value: 5.8 +/- 1.6 dpm x 10^6 g'1 fresh wt). The test is classed as functional.

Test [11] has as its system Hordeum vulgare. Nature of the test: Inhibition of fatty acid synthesis in Hordeum vulgare (barley) using [14C]malonate assessed as [14C]-labeled 18C fatty acid level at 300 uM after 3 hr by liquid scintillation counting (reference value: 12.5 +/- 3.9 %). The test is classed as functional. On the set-up: scale not given: the % may be the effect or the level left.
For test [12], the system named is Cucumis sativus. Nature of the test: Inhibition of fatty acid synthesis in Cucumis sativus (cucumber) using [14C]malonate assessed as [14C]-labeled 16C fatty acid level at 300 uM after 3 hr by liquid scintillation counting (reference value: 5.1 +/- 0.9%). The test is classed as functional. Also noted: scale not given: the % may be the effect or the level left.

Test [13] concerns Hordeum vulgare. Put plainly: Inhibition of fatty acid synthesis in Hordeum vulgare (barley) using [14C]malonate assessed as [14C]-labeled 16C fatty acid level at 300 uM after 3 hr by liquid scintillation counting (reference value: 8.1 %). The format is functional. On the set-up: scale not given: the % may be the effect or the level left.
Test [14] deals with Cucumis sativus. Put plainly: Inhibition of fatty acid synthesis in Cucumis sativus (cucumber) using [14C]malonate assessed as [14C]-labeled 24C fatty acid level at 300 uM after 3 hr by liquid scintillation counting (reference value: 26.4 +/- 5.5%). On the set-up: scale not given: the % may be the effect or the level left. The test is classed as functional.
In test [15] the test system is Hordeum vulgare. Put plainly: Inhibition of fatty acid synthesis in Hordeum vulgare (barley) using [14C]malonate assessed as [14C]-labeled 24C fatty acid level at 300 uM after 3 hr by liquid scintillation counting (reference value: 16.2 +/- 1.1 %). The format is functional. Also noted: scale not given: the % may be the effect or the level left.
Test [16] concerns Cucumis sativus. Nature of the test: Inhibition of fatty acid synthesis in Cucumis sativus (cucumber) using [14C]malonate assessed as [14C]-labeled 22C fatty acid level at 300 uM after 3 hr by liquid scintillation counting (reference value: 42.5 +/- 0.6%). The format is functional. Also noted: scale not given: the % may be the effect or the level left.
Test [17] deals with Hordeum vulgare. Nature of the test: Inhibition of fatty acid synthesis in Hordeum vulgare (barley) using [14C]malonate assessed as [14C]-labeled 22C fatty acid level at 300 uM after 3 hr by liquid scintillation counting (reference value: 32.8 +/- 2.3%). The format is functional. Also noted: scale not given: the % may be the effect or the level left.
In test [18] the test system is Cucumis sativus. Put plainly: Inhibition of fatty acid synthesis in Cucumis sativus (cucumber) using [14C]malonate assessed as [14C]-labeled 20C fatty acid level at 300 uM after 3 hr by liquid scintillation counting (reference value: 11.7 +/- 2%). The test is classed as functional. On the set-up: scale not given: the % may be the effect or the level left.
In test [19] the test system is Hordeum vulgare. Nature of the test: Inhibition of fatty acid synthesis in Hordeum vulgare (barley) using [14C]malonate assessed as [14C]-labeled 20C fatty acid level at 300 uM after 3 hr by liquid scintillation counting (reference value: 6.5 +/- 3.1 %). The test is classed as functional. Also noted: scale not given: the % may be the effect or the level left.
In test [20] the test system is Cucumis sativus. Nature of the test: Inhibition of fatty acid synthesis in Cucumis sativus (cucumber) using [14C]malonate assessed as [14C]-labeled 18C fatty acid level at 300 uM after 3 hr by liquid scintillation counting (reference value: 14.3 +/- 2%). The test is classed as functional. Also noted: scale not given: the % may be the effect or the level left.
For test [21], the system named is Cucumis sativus. Nature of the test: Inhibition of fatty acid synthesis in Cucumis sativus (cucumber) assessed as inhibition of [14C]malonate incoporation in total fatty acids at 300 uM measured as total disintegration per g of fresh weight after 3 hr by liquid scintillation counting (reference value: 16.3 +/- 1.1 dpm x 10^6 g'1 fresh wt). The test is classed as functional.

The test system of test [22] is Hordeum vulgare. Nature of the test: Inhibition of fatty acid synthesis in Hordeum vulgare (barley) assessed as inhibition of [14C]malonate incoporation in total fatty acids at 300 uM measured as total disintegration per g of fresh weight after 3 hr by liquid scintillation counting (reference value: 9.4 +/- 2.5 dpm x 10^6 g'1 fresh wt). The format is functional.

Each structure is given as a SMILES string. The source made the active and inactive calls. No cut-off for these calls is given here.

Consider `COCCN(C(=O)CCl)c1c(C)cccc1C` [DIMETHACHLOR], for which the inhibition entry in the test on Hordeum vulgare [1], in the test with Hordeum vulgare [2], in the test with Cucumis sativus [3] and in the test with Hordeum vulgare [4] was “Active” each time. Moreover, the Activity with Cucumis sativus [5] was 63.9%; in the test on Hordeum vulgare [6], 63.9%; in the test on Cucumis sativus [7], 36.2%; in the test on Hordeum vulgare [8], 36.1%; in the test on Cucumis sativus [9], 2.9 ×10⁶ dpm; with Hordeum vulgare [10], 5.9 ×10⁶ dpm. Also, the Activity with Hordeum vulgare [11] is 7.3%; in the test on Cucumis sativus [12], 20.4%; in the test with Hordeum vulgare [13], 14%; in the test with Cucumis sativus [14] it was 9.3%; in the test on Hordeum vulgare [15], 5.8%; in the test on Cucumis sativus [16], 12.5%. The Activity with Hordeum vulgare [17] is 18.1%; with Cucumis sativus [18] it was 11.2%; in the test with Hordeum vulgare [19], 8.5%; with Cucumis sativus [20], 46.8%; in the test with Cucumis sativus [21], 9.4 ×10⁶ dpm; in the test on Hordeum vulgare [22], 6.8 ×10⁶ dpm.
